{
  "source": "patent US20240217932A1",
  "about": "“PYRIDIUM ESTERS” (The Procter & Gamble Company, priority 2022, published 2024)",
  "key": {"staphylococcus aureus": {"test_system": "staphylococcus aureus", "assay": "Surface Antimicrobial Kill Testing Method, activity normalized to triclosan internal standard (Gram positive)", "format": "cell-based", "procedure": "(§1) Inoculum is prepared by streaking microorganism onto a Tryptic Soy Agar (TSA) plate and incubating for 24 h at 33° C. Plated bacteria is resuspended in saline until the transmittance percentage falls within the accepted range for ˜10^8 cfu/mL. For K. pneumonia (Kp) and P. aeruginosa (Pa), this is 31.00-33.00% T. For S. aureus (Sa) this is 23.00-25.00% T. A 10× concentration is made by spinning down the prepared inoculum, removing the supernatant saline from the bacterial pellet, then resuspending the pellet in 1/10th of the original volume of saline. The final inoculum is prepared with 5% of “soil” in the form of Fetal Bovine Serum (FBS).\n(§2) A 18×18 mm sterile glass coverslip is placed into an appropriate container (e.g. petri dish). 20 μL of prepared inoculum is added to the glass coverslip. Inoculum is then air-dried for 30 minutes in a 36° C. incubator. After drying, 40 μL of test sample is added on top of the dried inoculum. This is incubated at room temperature for the desired contact time. 5 mL of neutralizing media (Modified Letheen Broth+Tween+Lecithin (MLBTL)) is added to the coverslip and shaken on an orbital shaker for 5 minutes to ensure proper neutralization and extraction. Viability is then assessed of the neutralized and extracted sample by traditional/alternative microbiological techniques.\n(§3) The normalized antimicrobial activity reported in the performance examples below was generated from detection time data obtained as described in the Surface Antimicrobial Kill Test Method. To account for day-to-day variability an internal standard was tested with each series. The internal standard was a composition of 0.25 wt % Triclosan, Sigma Aldrich (St. Louis, MO, USA; CAS #3380-34-5, 97.0-103.0% (active substance, GC)), 50 wt % DMSO, and 49.75 wt % H2O, with a final solution pH of 7.7. Normalized activity is reported following the equation 1 below.\n(§4) Normalized Activity=(αΔDT-βΔDT)/(γΔDT-βΔDT) equation 1.\n(§5) where, αΔDT is the average detection time of the antimicrobial compound, and γΔDT is the average detection time of the reference triclosan internal standard, and βΔDT is the average detection time of the background unperturbed bacteria.\n(§6) Pyridinium esters of the present disclosure were tested as aqueous solutions in the Surface Antimicrobial Kill Testing Method above. To prepare test solutions pyridinium esters were first dissolved in the appropriate solvent. Second the selected surfactant is added to the mixture. After vortex (1 min, Vortex-2 Genie, vortex speed 8) mixing, the samples were then diluted with ½ portion of reverse osmosis water (RO water, Millipore Direct-Q™, pH 6). The aqueous solution was then vortexed (1 min, Vortex-2 Genie, vortex speed 8), to which the second ½ portion of water is added. The pH of the solution was then adjusted to the target pH using either 1N HCl, Glacial Acetic Acid, or 1N NaOH. The final solution was then vortexed (1 min, Vortex-2 Genic, vortex speed 8). An example batch sheet is provided below in Table 1.\n(§7) In Performance Examples 1-4 below, formulations comprising solvent, surfactant, and pyridinium esters according to the present disclosure (e.g., based on hexyl 3-(alkylpyridinium)acrylate halides), are evaluated via microbial surface kill tests according to the Surface Antimicrobial Kill Testing Method provided above. After treatment, microbial growth is referenced and reported to a triclosan sample and unaltered microbes according to the Normalization of Antimicrobial Activity provided above."}, "[1]": {"assay": "Stability of the isolated solid by 1H NMR", "format": "physicochemical"}, "Gram Negative bacteria": {"test_system": "Gram Negative bacteria", "assay": "Surface Antimicrobial Kill Testing Method, activity normalized to triclosan internal standard (Gram negative)", "format": "cell-based", "conditions": "water, pH 7", "procedure": "as §1, §2, §3, §4, §5, §6, §7"}, "[2]": {"conditions": "0.5 wt % compound, 3 wt % DEGBE, 1 wt % EcoSurf EH-9, 95.5 wt % reverse osmosis water, pH 7"}},
  "data": [
    {"smiles": "CCCCCCOC(=O)/C=C/c1ccc[n+](CCCCCC)c1.[Br-]", "note": "[Synthetic Example 5, hexyl 3-(3-hexylpyridinium)acrylate bromide]", "values": [
      {"measurement": "Gram Positive Referenced Microbial Activity", "setting": "staphylococcus aureus; 0.063 wt % Synthetic Example 5, 1 wt % EcoSurf EH9, 3 wt % DEGBE, water, pH 7", "value": 0.55},
      {"measurement": "Gram Positive Referenced Microbial Activity", "setting": "staphylococcus aureus; 0.125 wt % Synthetic Example 5, 1 wt % EcoSurf EH9, 3 wt % DEGBE, water, pH 7", "value": 0.93},
      {"measurement": "Gram Positive Referenced Microbial Activity", "setting": "staphylococcus aureus; 0.25 % Synthetic Example 5, 1 wt % Crodasinic LS30, 3 wt % DEGBE, water, pH 7", "value": 0.42},
      {"measurement": "Gram Positive Referenced Microbial Activity", "setting": "staphylococcus aureus; 0.25 % Synthetic Example 5, 1 wt % EH6, 3 wt % DEGBE, water, pH 7", "value": 1.09},
      {"measurement": "Gram Positive Referenced Microbial Activity", "setting": "staphylococcus aureus; 0.25 % Synthetic Example 5, 1 wt % L24-9, 3 wt % DEGBE, water, pH 7", "value": 0.54},
      {"measurement": "Gram Positive Referenced Microbial Activity", "setting": "staphylococcus aureus; 0.25 % Synthetic Example 5, 1 wt % Miranol Ultra, 3 wt % DEGBE, water, pH 7", "value": 0.78},
      {"measurement": "Gram Positive Referenced Microbial Activity", "setting": "staphylococcus aureus; 0.25 % Synthetic Example 5, 1 wt % Plantaren 2000, 3 wt % DEGBE, water, pH 7", "value": ">2.33"},
      {"measurement": "Gram Positive Referenced Microbial Activity", "setting": "staphylococcus aureus; 0.25 % Synthetic Example 5, 1 wt % SLS, 3 wt % DEGBE, water, pH 7", "value": 0.20},
      {"measurement": "Gram Positive Referenced Microbial Activity", "setting": "staphylococcus aureus; 0.25 % Synthetic Example 5, 1 wt % Tween80, 3 wt % DEGBE, water, pH 7", "value": 0.57},
      {"measurement": "Gram Positive Referenced Microbial Activity", "setting": "staphylococcus aureus; 0.25 wt % Synthetic Example 5, 1 wt % EcoSurf EH9, 3 wt % DEGBE, water, pH 7", "value": 2.02},
      {"measurement": "Gram Positive Referenced Microbial Activity", "setting": "staphylococcus aureus; 0.5 wt % Synthetic Example 5, 1 wt % EcoSurf EH9, 3 wt % DEGBE, water, pH 7 (concentration series)", "value": ">2.87"},
      {"measurement": "Gram Positive Referenced Microbial Activity", "setting": "staphylococcus aureus; [2]", "value": ">1.42"},
      {"measurement": "pH range of formulations in which antimicrobial efficacy is maintained", "setting": "staphylococcus aureus; formulations of table 16", "value": "3-9"},
      {"measurement": "Concentration down to which antimicrobial efficacy against staphylococcus aureus is maintained", "setting": "staphylococcus aureus; formulations of table 17", "value": "≥ 0.063", "unit": "wt %"},
      {"measurement": "Gram Positive Referenced Microbial Activity", "setting": "staphylococcus aureus; pH 3, 0.5 wt % compound, 1 wt % EcoSurf EH9, 3 wt % DEGBE, 95.5 wt % water", "value": ">2.58"},
      {"measurement": "Gram Positive Referenced Microbial Activity", "setting": "staphylococcus aureus; pH 7, 0.5 wt % compound, 1 wt % EcoSurf EH9, 3 wt % DEGBE, 95.5 wt % water (pH series)", "value": ">2.8"},
      {"measurement": "Gram Positive Referenced Microbial Activity", "setting": "staphylococcus aureus; pH 9, 0.5 wt % compound, 1 wt % EcoSurf EH9, 3 wt % DEGBE, 95.5 wt % water", "value": 2.53},
      {"measurement": "Stability of the independent solid by 1H NMR", "setting": "[1]", "value": "stable for several months"},
      {"measurement": "Gram Negative Referenced Microbial Activity", "setting": "Gram Negative bacteria; 0.25 % Synthetic Example 5, 1 wt % Crodasinic LS30, 3 wt % DEGBE", "value": 0.41},
      {"measurement": "Gram Negative Referenced Microbial Activity", "setting": "Gram Negative bacteria; 0.25 % Synthetic Example 5, 1 wt % EH6, 3 wt % DEGBE", "value": ">2.58"},
      {"measurement": "Gram Negative Referenced Microbial Activity", "setting": "Gram Negative bacteria; 0.25 % Synthetic Example 5, 1 wt % L24-9, 3 wt % DEGBE", "value": 1.34},
      {"measurement": "Gram Negative Referenced Microbial Activity", "setting": "Gram Negative bacteria; 0.25 % Synthetic Example 5, 1 wt % Miranol Ultra, 3 wt % DEGBE", "value": 1.92},
      {"measurement": "Gram Negative Referenced Microbial Activity", "setting": "Gram Negative bacteria; 0.25 % Synthetic Example 5, 1 wt % Plantaren 2000, 3 wt % DEGBE", "value": ">2.58"},
      {"measurement": "Gram Negative Referenced Microbial Activity", "setting": "Gram Negative bacteria; 0.25 % Synthetic Example 5, 1 wt % SLS, 3 wt % DEGBE", "value": 0.08},
      {"measurement": "Gram Negative Referenced Microbial Activity", "setting": "Gram Negative bacteria; 0.25 % Synthetic Example 5, 1 wt % Tween80, 3 wt % DEGBE", "value": 1.37}
    ]},
    {"smiles": "CCCCCCOC(=O)/C=C/c1cc[n+](CCCCCC)cc1.[Br-]", "note": "[Synthetic Example 6, hexyl 3-(4-hexylpyridinium)acrylate bromide]", "values": [
      {"measurement": "Gram Positive Referenced Microbial Activity", "setting": "staphylococcus aureus; [2]", "value": ">1.39"},
      {"measurement": "Stability of the independent solid by 1H NMR", "setting": "[1]", "value": "stable for several months"}
    ]},
    {"smiles": "CCCCCCOC(=O)/C=C/c1cccnc1", "note": "[Synthetic Example 1, hexyl 3-(3-pyridyl)acrylate]", "values": [
      {"measurement": "Gram Positive Referenced Microbial Activity", "setting": "staphylococcus aureus; [2]", "value": 0.11}
    ]},
    {"smiles": "CCCCCCCC[n+]1cccc(/C=C/C(=O)OCCCCCC)c1.[Br-]", "note": "[Synthetic Example 7, hexyl 3-(3-octylpyridinium)acrylate bromide]", "values": [
      {"measurement": "Gram Positive Referenced Microbial Activity", "setting": "staphylococcus aureus; [2]", "value": ">1.42"},
      {"measurement": "Stability of the independent solid by 1H NMR", "setting": "[1]", "value": "stable for several months"}
    ]},
    {"smiles": "CCCCCCOC(=O)/C=C/c1cc[n+](C)cc1.[I-]", "note": "[Synthetic Example 4, hexyl 3-(4-methylpyridinium)acrylate iodide]", "values": [
      {"measurement": "Gram Positive Referenced Microbial Activity", "setting": "staphylococcus aureus; [2]", "value": 1.2},
      {"measurement": "Stability of the independent solid by 1H NMR", "setting": "[1]", "value": "stable for several months"}
    ]},
    {"smiles": "CCCCCCOC(=O)/C=C/c1ccc[n+](C)c1.[I-]", "note": "[Synthetic Example 3, hexyl 3-(3-methylpyridinium)acrylate iodide]", "values": [
      {"measurement": "Gram Positive Referenced Microbial Activity", "setting": "staphylococcus aureus; [2]", "value": 0.21},
      {"measurement": "Stability of the independent solid by 1H NMR", "setting": "[1]", "value": "stable for several months"}
    ]},
    {"smiles": "CCCCCCCC[n+]1ccc(/C=C/C(=O)OCCCCCC)cc1.[Br-]", "note": "[Synthetic Example 8, hexyl 3-(4-octylpyridinium)acrylate bromide]", "values": [
      {"measurement": "Gram Positive Referenced Microbial Activity", "setting": "staphylococcus aureus; [2]", "value": ">1.33"},
      {"measurement": "Stability of the independent solid by 1H NMR", "setting": "[1]", "value": "stable for several months"}
    ]}
  ]
}
